Data set [1] deals with genetically-alcoholic rats, UChB strain. The data set can be described thus: Anti-alcoholism activity in genetically-alcoholic rats (3 or 6 day treatment). It counts as in vivo, Wistar rats. The following applies: for lowered alcohol consumption: vs reference period. The source says: (§1) As an animal model of alcoholic mammals, including human beings, adult Wistar rats of both sexes, belonging to the UChB strain were used. This strain of rats is the result of a long selection at the University of Chile, and rats belonging to it are known to be volunteer consumers of 10% (v/v) aqueous alcohol (cf. J. Mardones and N. Segovia-Riquelme, “Thirty two years of selection of rats by ethanol preference”: UChA and UChB strains”, Neurobehav. Toxicol. and Teratol. 1983, vol. 5, pp. 171–178). Thus, the rats used in these experiments can be considered genetically alcoholic.
Rats were kept in individual cages at 22° C., with alternative 12 h periods of light and darkness. Besides unlimited access to food, they had ad libitum access to water and 10% (v/v) aqueous alcohol. All experiments were double-blind, and results were analyzed using common statistical methods. As changes in alcohol consumption might be influenced by the eagerness of food and/or water intake, both the consumption of food and of water were measured and analyzed. […] In each experiment the following three periods of time were considered:
a) A reference period, consisting of the three days previous to treatment. The measured consumption values were used as reference for comparison purposes.
b) A treatment period, consisting of the three or six days during which aqueous solutions of the tested compound were intra-gastrically administered, always at the same time of the day. N,N′-bis(3-aminopropyl)cyclohexane-1,4-diamine tetramethanesulfonate monohydrate was administered at two doses, 20 mg/kg of body weight and 40 mg/kg, using aqueous solutions of the tested compound of concentrations 10 g/L and 20 g/L, respectively. Dose of 20 mg/kg was tested both for 3 consecutive days and 6 consecutive days. Dose of 40 mg/kg was tested only for 3 consecutive days.
c) A post-treatment period, consisting of the three days immediate after the treatment period, during which measurement were taken in order to establish the duration of the effect and the reversibility of the changes.

Data set [2] shares this test system. Nature of the data set: Anti-alcoholism activity during a prolonged treatment period (30 days). The settings on record: 40 mg/kg, treatment period of 30 days. It counts as in vivo, Wistar rats.
From the text: as §1
Rats were kept in individual cages at 22° C., with alternative 12 h periods of light and darkness. […] All experiments were double-blind, and results were analyzed using common statistical methods. As changes in alcohol consumption might be influenced by the eagerness of food and/or water intake, both the consumption of food and of water were measured and analyzed. […]
(§2) The effect of the administration of N,N′-bis(3-aminopropyl)-cyclohexane-1,4-diamine tetramethanesulfonate monohydrate to Wistar rats of both sexes belonging to the UChB strain, at a dose of 40 mg/kg during a treatment period of 30 days, was assessed in an experiment analogous to the one of Example 4. Individual consumptions of alcohol and water, measured daily, were grouped in cycles of 3 consecutive days, thus reducing data to ten average values.

The test system is the same in data set [3]. The data set can be described thus: Anti-alcoholism activity during a post-treatment period (27 days). The format is in vivo, Wistar rats. The following applies: 27 days after the 30-day treatment at 40 mg/kg. As to the method:
as §2
The effect of the administration of N,N′-bis(3-aminopropyl)-cyclohexane-1,4-diamine tetramethanesulfonate monohydrate to Wistar rats of both sexes belonging to the UChB strain, during a post-treatment period of 27 days (9 cycles of 3 days) after the prolonged treatment of Example 5, was assessed in an analogous experiment. […] Therefore, the effect of N,N′-bis(3-aminopropyl)-cyclohexane-1,4-diamine tetramethanesulfonate monohydrate lasts substantially for a long time after a prolonged treatment, without recovering the initial levels of alcohol/water consumption.

For data set [4], the system named is metabolism of acetaldehyde. The data set can be described thus: Assessment of disulfiram-like adverse effect (blood acetaldehyde after ethanol, gas chromatography). The format is in vivo, Wistar male rats. As to the method: The possible disulfiram-like adverse effect of N,N′-bis(3-aminopropyl)cyclohexane-1,4-diamine tetramethanesulfonate monohydrate was studied by gas-chromatographic measurements of the blood concentration of acetaldehyde in standard Wistar male rats, after the intraperitoneal administration of 2.76 g/kg of ethanol in the form of 10% (v/v) aqueous solution. Blood samples were taken from the tail (0.5, 1.0 and 2.0 h after ethanol administration) and from the suprahepatic vein (2.0 h after ethanol administration).

With `CS(=O)(=O)O.CS(=O)(=O)O.CS(=O)(=O)O.CS(=O)(=O)O.NCCCNC1CCC(NCCCN)CC1.O` (centres unmarked) [N,N′-bis(3-aminopropyl)cyclohexane-1,4-diamine tetramethanesulfonate monohydrate], the lowered alcohol consumption in data set [1] (20 mg/kg intra-gastric for 6 days, first 6 hours after administration, p<0.01) is recorded as 25%; in data set [1] (40 mg/kg intra-gastric for 3 days), 27%. Also, in data set [1] (40 mg/kg for 3 days, three days after treatment), the “decrease of alcohol consumption along the post-treatment period” value is “this decrease was kept along the post-treatment period”. In addition, the “decreases of alcohol consumption in the period of 6-24 h” value in data set [1] (6-24 h after administration, compared with first 6 h) is given as “smaller”. Besides, in data set [1] (20 or 40 mg/kg, 3 or 6 days), the “changes in the consumption of both food and water” value is listed as “not significant”. Moreover, the “overall activity as anti-alcoholism agent” value in data set [1] (overall results of Example 4) is on record as “substantial activity as anti-alcoholism agent”. Besides, the “decrease in alcohol consumption at the end of the treatment period” value in data set [2] amounted to 71%. Also, the “decrease of alcohol consumption at the end of the post-treatment period” value in data set [3] is 24%. The “levels of acetaldehyde in blood” value in data set [4] (40 mg/kg oral 2, 6, 8 and 24 h before 2.76 g/kg i.p. ethanol, blood at 0.5, 1.0, 2.0 h) is “did not raised levels of acetaldehyde in blood”. Further, the “block of the metabolism of acetaldehyde” value in data set [4] (conclusion from blood acetaldehyde after ethanol, disulfiram in a control test) is on record as “does not block the metabolism of acetaldehyde significantly”.

With `CCN(CC)C(=S)SSC(=S)N(CC)CC` [disulfiram, tetraethylthiuram disulfide, reference compound], in data set [4] (rat, in vivo), the “block of the metabolism of acetaldehyde” value was “contrary to what happens with disulfiram”.

These data come from US7026514B2, “Compounds used to treat alcoholism” (Garbil Pharma Investigacion Chile Ltda., priority 2001, dated 2006).
